Counter-ions that a name gives are not always drawn. Like-named read-outs stand apart in the source and are kept apart here.
Target: HIV-1 protease (Human immunodeficiency virus type 1 group M subtype B, UniProt P04585)
Test: biochemical
Details: for inhibition at 0.123 µM: read-out: HIV-1 Protease % Inhib, dose 0.123 uM
Method in brief: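 Biotinylated, FITC-labeled peptide substrate (20 μl of 0.2 μM) incubated with HIV-1 protease (10 μl of 0.1 μM) and compound in 0.1 M sodium acetate pH 5.5, 1.0 M NaCl, 0.05% NP-40, 1 h, room temperature, dark. Streptavidin beads then capture uncleaved substrate; filtered labeled product read by fluorescence, giving percent inhibition.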

[1] = read-out: HIV-1 Protease % Inhib, dose 0.370 uM
[2] = read-out: HIV-1 Protease % Inhib, dose 1.100 uM
[3] = read-out: HIV-1 Protease % Inhib, dose 3.300 uM
[4] = read-out: HIV-1 Protease % Inhib, dose 10.000 uM
[5] = read-out: HIV-1 Protease % Inhib, dose 30.000 uM
[6] = dose 0.370 uM, read-out: HIV-1 Protease % Inhib
[7] = dose 1.100 uM, read-out: HIV-1 Protease % Inhib
[8] = dose 3.300 uM, read-out: HIV-1 Protease % Inhib
[9] = dose 10.000 uM, read-out: HIV-1 Protease % Inhib
[10] = dose 30.000 uM, read-out: HIV-1 Protease % Inhib

Compound	inhibition at 0.37 µM [6]	inhibition at 1.1 µM [7]	inhibition at 3.3 µM [8]	inhibition at 10 µM [9]	inhibition at 30 µM [10]	inhibition at 0.123 µM	inhibition at 0.37 µM [1]	inhibition at 1.1 µM [2]	inhibition at 3.3 µM [3]	inhibition at 10 µM [4]	inhibition at 30 µM [5]
CC(C)(C)OC(=O)N[C@H](Cc1c[nH]cn1)C(=O)Nc1cccc(C(c2c(O)c3c(oc2=O)CCCCCC3)C2CC2)c1 (stereo partly drawn) [Example 204, Carbamic acid, [2-[[3-[cyclopropyl(5,6,7,8,9,10-hexahydro-4-hydroxy-2-oxo-2H-cycloocta[b]pyran-3-yl)methyl]phenyl]amino]-1-(R)-(1H-imidazol-4-ylmethyl)-2-oxoethyl]-, 1,1-dimethylethyl ester]	–	–	–	–	–	49%	86.5%	107%	114%	117%	116%
CC(C)(C)OC(=O)NCC(=O)N(Cc1ccccc1)c1cccc(C(c2c(O)c3c(oc2=O)CCCCCC3)C2CC2)c1 (stereo not drawn) [Example 216, Carbamic acid, [2-[[3-[cyclopropyl(5,6,7,8,9,10-hexahydro4-hydroxy-2-oxo-2H-cycloocta[b]pyran-3-yl)methyl]phenyl](phenylmethyl)amino]-2-oxyethyl]-, 1,1-dimethylethyl ester]	–	–	–	10.9%	31.4%	–	–	–	–	–	–
CCC(c1cccc(N)c1)c1c(O)c2c(oc1=O)CCCCCC2 (stereo not drawn) [Example 218, 2H-Cycloocta[b]pyran-2-one, 3-[1-(3-aminophenyl)propyl]-5,6,7,8,9,10-hexahydro-4-hydroxy-]	–	26.2%	65.2%	88%	91.4%	–	–	–	–	–	–
CCC(c1cccc(NS(=O)(=O)c2ccc(Cl)cc2)c1)c1c(O)c2c(oc1=O)CCCCCC2 (stereo not drawn) [Example 221, Benzenesulfonamide, 4-chloro-N-[3-[1-(5,6,7,8,9,10-hexahydro-4-hydroxy-2-oxo-2H-cycloocta[b]pyran-3-yl)propyl]phenyl]-]	–	–	–	–	–	79.7%	101%	116%	117%	119%	124%
CCC(c1cccc(NS(=O)(=O)c2ccc(C#N)cc2)c1)c1c(O)c2c(oc1=O)CCCCCC2 (stereo not drawn) [Example 222, Benzenesulfonamide, 4-cyano-N-[3-[1-(5,6,7,8,9,10-hexahydro-4-hydroxy-2-oxo-2H-cycloocta[b]pyran-3-yl)propyl]phenyl]-]	–	–	–	–	–	80.4%	94.1%	103%	110%	111%	110%
CCNC(=O)Nc1cccc(C(c2c(O)c3c(oc2=O)CCCCCC3)C2CC2)c1 (stereo not drawn) [Example 223, N-[3-[Cyclopropyl(5,6,7,8,9,10-hexahydro-4-hydroxy-2-oxo-2H-cycloocta[b]pyran-3-yl)methyl]phenyl]-N'-ethyl-urea]	–	–	–	–	–	11.1%	31.3%	62.3%	85.7%	102%	101%
O=C(Nc1cccc(C(c2c(O)c3c(oc2=O)CCCCCC3)C2CC2)c1)Oc1ccccc1 (stereo not drawn) [Example 225, [3-[Cyclopropyl(5,6,7,8,9,10-hexahydro-4-hydroxy-2-oxo-2H-cycloocta[b]pyran-3-yl)methyl]phenyl]-, phenyl ester carbamic acid]	–	–	–	–	–	–	–	14.9%	47%	77.2%	91.7%
CC(C)C(c1ccccc1)c1c(O)c2c(oc1=O)CCCCCC2 (stereo not drawn) [Example 227, 2H-Cycloocta[b]pyran-2-one,5,6,7,8,9,10-hexahydro-4-hydroxy-3-(2-methyl-1-phenylpropyl)-]	–	–	–	–	–	–	41.7%	81.1%	91.1%	90.1%	80.9%
O=c1oc2c(c(O)c1C(c1cccc(NS(=O)(=O)c3cccc4cccnc34)c1)C1CC1)CCCCCC2 (stereo not drawn) [Example 263, N-[3-[Cyclopropyl(5,6,7,8,9, 10-hexahydro4-hydroxy-2-oxo-2H-cycloocta[b]pyran-3-yl)methyl]phenyl]-8-quinolinesulfonamide]	–	–	–	–	–	82.9%	89.9%	95.7%	98.7%	108%	98.3%
O=c1oc2c(c(O)c1C(c1cccc(NS(=O)(=O)c3ccc(Cl)cc3)c1)C1CC1)CCCCCC2 (stereo not drawn) [Example 264, 4-Chloro-N-[3-[cyclopropyl(5,6,7,8,9,10-hexahydro4-hydroxy-oxo-2H-cycloocta[b]pyran-3-yl)methyl]phenyl]-benzenesulfonamide]	–	–	–	–	–	78.5%	89%	99.8%	104%	108%	109%
O=c1oc2c(c(O)c1C(c1cccc(NS(=O)(=O)c3ccc4ccccc4c3)c1)C1CC1)CCCCCC2 (stereo not drawn) [Example 266, N-[3-[Cyclopropyl(5,6,7,8,9,10-hexahydro-4-hydroxy-2-oxo-2H-cycloocta[b]pyran-3-yl)methyl]phenyl]-2-naphthalenesulfonamide]	–	–	–	–	–	79.8%	88.4%	104%	100%	105%	103%

Further lines, with some results ahead:

inhibition at 0.37 µM [6]	inhibition at 1.1 µM [7]	inhibition at 3.3 µM [8]	inhibition at 10 µM [9]	inhibition at 30 µM [10]	Compound	inhibition at 0.123 µM	inhibition at 0.37 µM [1]	inhibition at 1.1 µM [2]	inhibition at 3.3 µM [3]	inhibition at 10 µM [4]	inhibition at 30 µM [5]
17.9%	48%	76.4%	95.8%	93.1%	O=C(Nc1cccc(C(c2c(O)c3c(oc2=O)CCCCCC3)C2CC2)c1)c1ccc(Cl)cc1 (stereo not drawn) [Example 206, Benzamide, 4-chloro-N-[3-[cyclopropyl(5,6,7,8,9,10-hexahydro-4-hydroxy-2-oxo-2H-cycloocta[b]pyran-3-yl)methyl]phenyl]-]	–	–	–	–	–	–
–	22.9%	57.6%	76.8%	84.4%	O=C(C=Cc1ccccc1)Nc1cccc(C(c2c(O)c3c(oc2=O)CCCCCC3)C2CC2)c1 (stereo not drawn) [Example 208]	–	–	–	–	–	–
–	–	32.5%	59.5%	69.5%	O=C(Nc1cccc(C(c2c(O)c3c(oc2=O)CCCCCC3)C2CC2)c1)c1cccc2ccccc12 (stereo not drawn) [Example 212, 1-Naphthalenecarboxamide, N-[3-[cyclopropyl(5,6,7,8,9,10-hexahydro4-hydroxy-2-oxo-2H-cyclooct[b]pyran-3-yl)methyl]phenyl]-]	–	–	–	–	–	–
–	–	31.6%	64.2%	72.9%	CCC(c1cccc(NC(=O)OCc2ccccc2)c1)c1c(O)c2c(oc1=O)CCCCCC2 (stereo not drawn) [Example 217, Carbamic Acid, [3-[1-(5,6,7,8,9,10-hexahydro-4-hydroxy-2-oxo-2H-cycloocta[b]pyran-3-yl)propyl]phenyl]-, phenyl methyl ester]	–	–	–	–	–	–
–	25.2%	63.6%	94%	101%	CCC(c1cccc(NC(=O)CCN)c1)c1c(O)c2c(oc1=O)CCCCCC2 (stereo not drawn) [Example 220, Propanamide, 3-amino-N-[3-[1-(5,6,7,8,9,10-hexahydro4-hydroxy-2-oxo-2H-cycloocta[b]pyran-3-yl)propyl]phenyl]-, monohydrochloride]	–	–	–	–	–	–
10.9%	42.4%	72.3%	83.7%	95.3%	O=C(Nc1ccccc1)Nc1cccc(C(c2c(O)c3c(oc2=O)CCCCCC3)C2CC2)c1 (stereo not drawn) [Example 224, N-[3-[Cyclopropyl(5,6,7,8,9,10-hexahydro-4-hydroxy-2-oxo-2H-cycloocta[b]pyran-3-yl)methyl]phenyl]-N'-phenyl-urea]	–	–	–	–	–	–
–	13.8%	36%	65.3%	78.9%	O=c1oc2c(c(O)c1C(c1cccc(NCc3ccccc3)c1)C1CC1)CCCCCC2 (stereo not drawn) [Example 242, 3-[Cyclopropyl-[3-[(phenylmethyl)amino]phenyl]methyl]-5,6,7,8,9,10-hexahydro-4-hydroxy-2H-cycloocta[b]pyran-2-one]	–	–	–	–	–	–
–	–	24.4%	44.7%	54.3%	O=c1oc2c(c(O)c1C(c1cccc(NCCc3ccccc3)c1)C1CC1)CCCCCC2 (stereo not drawn) [Example 243, 3-[Cyclopropyl-[3-[(2-phenylethyl)amino]phenyl]methyl]-5,6,7,8,9, 10-hexahydro-4-hydroxy-2H-cycloocta[b]pyran-2-one]	–	–	–	–	–	–
–	–	–	18.8%	31.8%	O=c1oc2c(c(O)c1C(c1cccc(N(Cc3ccccc3)S(=O)(=O)c3ccccc3)c1)C1CC1)CCCCCC2 (stereo not drawn) [Example 244, N-[3-[Cyclopropyl(5,6,7,8,9, 10-hexahydro-4-hydroxy-2-oxo-2H-cycloocta[b]pyran-3-yl)methyl]phenyl]-N-(phenylmethyl)-benzenesulfonamide]	–	–	–	–	–	–
–	10.6%	50.9%	59.5%	78.6%	CS(=O)(=O)N(Cc1ccccc1)c1cccc(C(c2c(O)c3c(oc2=O)CCCCCC3)C2CC2)c1 (stereo not drawn) [Example 245, N-[3-[Cyclopropyl(5,6,7,8,9, 10-hexahydro-4-hydroxy-2-oxo-2H-cycloocta[b]pyran-3-yl)methyl]phenyl]-N-(phenylmethyl)-methanesulfonamide]	–	–	–	–	–	–
–	–	–	26.6%	49.7%	O=c1oc2c(c(O)c1C(c1cccc(N(CCc3ccccc3)S(=O)(=O)c3ccccc3)c1)C1CC1)CCCCCC2 (stereo not drawn) [Example 246, N-[3-[cyclopropyl(5,6,7,8,9,10-hexahydro-4-hydroxy-2-oxo-2H-cycloocta[b]pyran-3-yl)methyl]phenyl]-N-(2-phenylethyl)-benzenesulfonamide]	–	–	–	–	–	–
